Measurements: the Biogen ADME set (Fang et al. 2023)
Converted amounts (≈) assume the structure as drawn.

Settings: for aqueous solubility: pH 6.8

MDR1-MDCK efflux ratio | intrinsic clearance, human liver microsomes [mL/min/kg] | intrinsic clearance, rat liver microsomes [mL/min/kg] | aqueous solubility [µg/mL] | fraction unbound, human plasma | fraction unbound, rat plasma | SMILES
2.21 | 1340 | 4200 | – | – | – | COc1ccc(NC(C)=O)cc1NC(=O)CN(Cc1ccccc1)C(C)C
0.594 | ≤ 4.74 | ≤ 10.7 | 21.5 (≈ 102 µM) | – | – | Clc1ccc(NCc2ccoc2)nn1
0.576 | 25.7 | 74.9 | 50.4 (≈ 219 µM) | – | – | Cc1cc(C(=O)NCC2CC2)n2nccc2n1
29.4 | 8.53 | 348 | 49.2 (≈ 164 µM) | – | – | CCc1nc2ccccc2n1CC(=O)Nc1ncc(C)s1
82 | ≤ 4.74 | 11 | 75.9 (≈ 202 µM) | – | – | Cc1ncsc1C(=O)N1C[C@@H]2CCCN(C(=O)c3scnc3C)[C@@H]2C1
1.23 | ≤ 4.74 | 20.6 | 34 (≈ 123 µM) | – | – | c1ccc(Cc2nnc(NC3CCOCC3)s2)cc1
2.82 | 17.3 | 166 | – | – | – | COc1cc(C#N)ccc1Cn1ccnc1C(C)C
0.953 | 192 | 1400 | – | – | – | Cc1noc(C)c1CS(=O)(=O)C1CCCc2ccccc21 (stereo not given)
– | 506 | 2640 | 59.8 (≈ 174 µM) | – | – | Cc1cccc(NC(=O)CN2C(=O)N(C)C3(CCCCC3)C2=O)c1C
0.645 | 33.7 | 442 | 5.12 (≈ 15.4 µM) | – | – | COc1ccc2ccccc2c1CNC(=O)c1cnc(C2CC2)nc1
– | – | – | 34.8 (≈ 89 µM) | – | – | CCn1cnnc1C1CCCN(c2ncnc3sc(-c4ccccc4)cc23)C1 (stereo not given)
0.697 | – | – | 1 (≈ 2.53 µM) | – | – | O=S(=O)(c1ccccc1Cl)N1CCCc2cnc(N3CCOCC3)nc21

The next lines start with the compound.

SMILES | MDR1-MDCK efflux ratio | intrinsic clearance, human liver microsomes [mL/min/kg] | intrinsic clearance, rat liver microsomes [mL/min/kg] | aqueous solubility [µg/mL] | fraction unbound, human plasma | fraction unbound, rat plasma
Cc1cc(N(C)C)nc(-n2cnc(C#N)n2)n1 | 0.595 | 33.6 | 79.2 | 23.3 (≈ 101 µM) | – | –
CNCc1cc(NC)nc(C2CCCN2C(=O)COc2ccccc2OC)n1 (stereo not given) | 1.2 | ≤ 4.74 | 45.1 | – | – | –
CCn1c(C)nc2cc(NC(=O)c3ccc(=O)n(CC(=O)N4CCCCC4)c3)ccc21 | 4.08 | ≤ 4.74 | 54.8 | 78.4 (≈ 186 µM) | – | –
Cc1cc(C)c2c(c1)CCCN2C(=O)c1ccc(-c2nnc(C)o2)cc1 | 0.685 | 149 | 2090 | 52.2 (≈ 150 µM) | – | –
CCc1nnc(Nc2cc(C)nc(C3CN(C(=O)C(C)C)CCO3)c2)s1 (stereo not given) | 40.4 | 13.7 | 131 | – | – | –
Cc1nnc2ccc(NCCOC3CCCCCC3)nn12 | 1.54 | 49.9 | 901 | – | – | –
O=C([C@@H]1CCCN1C(=O)NC(c1ccccc1)c1ccccc1)N1CCCCC1 | 26.9 | 205 | 867 | – | – | –
CCCCCCCC/C(=C\CCCCCCCC(=O)O)[N+](=O)[O-] | – | 42.9 | 84.9 | 12.7 (≈ 38.8 µM) | – | –
CC(=O)N1CCC[C@H]1C(=O)Nc1cccc(OC(F)F)c1 | 1.42 | ≤ 4.74 | 31.4 | 47 (≈ 157 µM) | – | –
Cc1oc(C)c(C(=O)N2CCNC(=O)C2)c1Br | 5.92 | ≤ 4.74 | ≤ 10.7 | 72.2 (≈ 240 µM) | – | –
COCCCNc1nnc(-c2ccncc2)s1 | 0.654 | 13.3 | 84.1 | – | – | –
CC(=O)NCCCC(=O)Nc1ccc(Oc2ccccc2Cl)cc1 | 8.25 | 9.61 | 722 | – | – | –
COc1cc2c(cc1OC)CN(CCc1ccc(NC(=O)c3cccc4c(O)c5cccc(OC)c5nc34)cc1)CC2 | – | – | – | – | 0.00062 | 0.00051
Cc1ccc(F)c(N(C#N)Cc2nnc(C)o2)c1 | – | – | – | 44.6 (≈ 181 µM) | – | –
COc1ccc(CN(C)C(=O)C2(C#N)CCC2)cc1 | – | – | – | 56.6 (≈ 219 µM) | – | –
CCN(CC)Cc1ccc2cc(COC(=O)Nc3ccc(C(=O)NO)cc3)ccc2c1 | 22.6 | 7.96 | 227 | 78 (≈ 185 µM) | – | –
CONC(=O)c1ccccc1Nc1cc(Nc2cc(C)nn2C(C)C)ncc1Cl | – | 66.2 | 262 | 24.2 (≈ 58.4 µM) | – | –
CS(=O)(=O)CCNC(=O)N1CC2(CCCC2)c2ccccc21 | 3.67 | 9.64 | 192 | 47.4 (≈ 147 µM) | – | –
